According to PubChem BioAssay (NCI):
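Cultured in 96-well plates, cells were exposed to test compound for 48 hours across five concentrations. GI50 marks 50% less growth. TGI marks complete inhibition of growth.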

How the values were obtained:
Experiment in all cases: NCI-60 cell line screen, 48 h
[1] = system: SN12C renal
[2] = system: RPMI-8226 leukemia
[3] = system: M14 melanoma
[4] = system: U251 CNS
[5] = system: MDA-MB-435
[6] = system: OVCAR-3 ovarian
[7] = system: HOP-62 NSCLC
[8] = system: A549 NSCLC
[9] = system: UACC-257 melanoma
[10] = system: SNB-19 CNS

## O=S(=O)(Nc1ccc(Cl)c(C(F)(F)F)c1)c1ccc(-c2cnc(C3CC3)o2)cc1
[1]
  GI50: 1.05 µM
  TGI: 4.71 µM
[2]
  GI50: 1.35 µM
  TGI: 5.64 µM
[3]
  GI50: 0.276 µM
  TGI: 4.68 µM
[4]
  GI50: 0.326 µM
  TGI: 10.9 µM
[5]
  GI50: 0.0658 µM
  TGI: 0.606 µM
[6]
  GI50: 0.0393 µM
  TGI: 1.9 µM
[7]
  GI50: 0.615 µM
  TGI: 4.88 µM
[8]
  GI50: 0.577 µM
  TGI: > 35.6 µM
[9]
  GI50: 1.29 µM
  TGI: 7.93 µM

## Oc1cccc(C2SCc3nc4ccccc4n32)c1 (stereo not given)
[1]
  TGI: > 100 µM
[2]
  TGI: > 100 µM
[4]
  TGI: > 100 µM
[10]
  TGI: > 100 µM
[6]
  TGI: > 100 µM
[8]
  TGI: > 100 µM
[9]
  TGI: > 100 µM

## Fc1cccc(F)c1C1SCc2nc3ccccc3n21 (stereo not given)
[1]
  TGI: > 100 µM
[2]
  TGI: > 100 µM
[3]
  TGI: > 100 µM
[4]
  TGI: > 100 µM
[10]
  TGI: > 100 µM
[6]
  TGI: > 100 µM
[7]
  TGI: > 100 µM
[8]
  TGI: > 100 µM
[9]
  TGI: > 100 µM

## CC1=COC2=C(C)C(=O)C(=O)c3c(C)ccc1c32
[1]
  TGI: 14.1 µM
[2]
  TGI: 97.2 µM
[3]
  TGI: 13.8 µM
[4]
  TGI: > 44.7 µM
[10]
  TGI: > 40.5 µM
[5]
  TGI: 3.86 µM
[7]
  TGI: > 36.9 µM
[8]
  TGI: 15.2 µM
[9]
  TGI: 20.6 µM

## CCOC(=O)c1cc(C(=O)c2cc(OC)cc(OC)c2)n2ncccc12
[1]
  GI50: 4.16 µM
  TGI: > 100 µM
[2]
  GI50: 1.82 µM
  TGI: > 100 µM
[3]
  GI50: 0.394 µM
  TGI: > 100 µM
[4]
  GI50: 2 µM
  TGI: > 100 µM
[10]
  GI50: 4.28 µM
  TGI: > 100 µM
[6]
  GI50: 0.402 µM
  TGI: > 100 µM
[7]
  GI50: 10.2 µM
  TGI: > 100 µM
[8]
  GI50: 11.1 µM
  TGI: > 100 µM
[9]
  GI50: 67.1 µM
  TGI: > 100 µM

## CN(C)CCCC1(c2ccc(F)cc2)OCc2cc(-c3ccc4cc[nH]c4c3)ccc21 (stereo not given)
[1]
  GI50: 1.73 µM
  TGI: 3.56 µM
[2]
  GI50: 2.5 µM
  TGI: 6.04 µM
[3]
  GI50: 1.88 µM
  TGI: 3.82 µM
[10]
  GI50: 1.79 µM
  TGI: 3.67 µM
[5]
  GI50: 1.73 µM
  TGI: 3.23 µM
[6]
  GI50: 1.74 µM
  TGI: 3.35 µM
[7]
  GI50: 1.71 µM
  TGI: 3.71 µM
[8]
  GI50: 2.11 µM
  TGI: 4.57 µM
[9]
  GI50: 1.96 µM
  TGI: 3.91 µM

## C[C@]12CC[C@@H]3c4ccc(O)cc4CC[C@H]3[C@@H]1CC[C@@H]2NS(=O)(=O)c1cccc(Br)c1
[1]
  GI50: 2.25 µM
  TGI: 5.73 µM
[2]
  GI50: 3.41 µM
  TGI: 17.3 µM
[3]
  GI50: 3.69 µM
  TGI: 13.7 µM
[4]
  GI50: 3.23 µM
  TGI: 11 µM
[10]
  GI50: 7.09 µM
  TGI: 20.4 µM
[5]
  GI50: 2.69 µM
  TGI: 9.21 µM
[7]
  GI50: 10.4 µM
  TGI: 22.5 µM
[8]
  GI50: 3.11 µM
  TGI: 13.1 µM
[9]
  GI50: 5.1 µM
  TGI: 20 µM

## CNC(=O)OCc1nc(S(C)=O)n(C)c1COC(=O)NC (stereo not given)
[1]
  TGI: > 100 µM
[2]
  TGI: > 100 µM
[3]
  TGI: > 48.3 µM
[4]
  TGI: > 100 µM
[10]
  TGI: > 100 µM
[6]
  TGI: > 100 µM
[7]
  TGI: > 100 µM
[8]
  TGI: > 46.4 µM
[9]
  TGI: > 100 µM

## C=C(CO)CC(O)c1ccccc1 (stereo not given)
[1]
  TGI: > 100 µM
[2]
  TGI: > 100 µM
[3]
  TGI: > 100 µM
[4]
  TGI: > 100 µM
[10]
  TGI: > 100 µM
[6]
  TGI: > 100 µM
[7]
  TGI: > 100 µM
[8]
  TGI: > 100 µM

## NC1=C(c2nc(-c3cc4ccccc4oc3=O)cs2)C(c2ccco2)c2c(c3ccccc3oc2=O)O1 (stereo not given)
[1]
  GI50: > 150 µg/mL
  TGI: > 150 µg/mL
[3]
  GI50: 100 µg/mL
  TGI: > 150 µg/mL
[4]
  GI50: 21.7 µg/mL
  TGI: 58.4 µg/mL
[10]
  GI50: 53.1 µg/mL
  TGI: > 150 µg/mL
[5]
  GI50: > 150 µg/mL
  TGI: > 150 µg/mL
[6]
  GI50: > 150 µg/mL
  TGI: > 150 µg/mL
[7]
  GI50: 22.4 µg/mL
  TGI: 81.1 µg/mL
[8]
  GI50: > 150 µg/mL
  TGI: > 150 µg/mL
[9]
  GI50: > 150 µg/mL
  TGI: > 150 µg/mL

## O=[N+]([O-])c1ccc2nc(N/N=C/c3ccc(O)cc3)sc2c1
[1]
  GI50: 4.4 µM
  TGI: > 100 µM
[2]
  GI50: 2.56 µM
  TGI: 15.8 µM
[4]
  GI50: 4.56 µM
  TGI: 67.5 µM
[10]
  GI50: 6.24 µM
  TGI: > 100 µM
[5]
  GI50: 3.61 µM
  TGI: 91.9 µM
[6]
  GI50: 3.4 µM
  TGI: 14.6 µM
[7]
  GI50: 8.82 µM
  TGI: 30.7 µM
[8]
  GI50: 3.52 µM
  TGI: 29.4 µM
[9]
  GI50: 9.09 µM
  TGI: 45 µM

## CSc1s[s+]c(SC)c1[O-]
[1]
  TGI: 52.5 µM
[3]
  TGI: 75.8 µM
[4]
  TGI: 86.5 µM
[10]
  TGI: > 100 µM
[6]
  TGI: 67.2 µM
[7]
  TGI: > 100 µM
[8]
  TGI: > 100 µM
[9]
  TGI: 50.2 µM

## Cc1ccccc1NC(=O)C(=O)Cc1nc2ccccc2s1
[1]
  TGI: > 100 µM
[3]
  TGI: > 100 µM
[4]
  TGI: > 100 µM
[10]
  TGI: > 100 µM
[6]
  TGI: > 100 µM
[7]
  TGI: > 100 µM
[8]
  TGI: > 100 µM
[9]
  TGI: > 100 µM

## Clc1ccc2c(NCCCN3CCN(c4nc(-n5ccnc5)nc5ccccc45)CC3)ccnc2c1
[1]
  GI50: > 100 µM
  TGI: > 100 µM
[2]
  GI50: 2.21 µM
  TGI: 5.19 µM
[4]
  GI50: 1.89 µM
  TGI: 3.53 µM
[10]
  GI50: 2.55 µM
  TGI: 6.49 µM
[5]
  GI50: 1.74 µM
  TGI: 3.2 µM
[6]
  GI50: 1.55 µM
  TGI: 3.15 µM
[7]
  GI50: 44.8 µM
  TGI: > 100 µM
[9]
  GI50: 2 µM
  TGI: 3.81 µM

## CCCCCN(CCCCC)C(=O)[C@@H](CCC(=O)OCc1ccccc1)NC(=O)c1cc2ccccc2[nH]1
[1]
  TGI: > 100 µM
[3]
  TGI: > 100 µM
[4]
  TGI: > 100 µM
[10]
  TGI: > 100 µM
[6]
  TGI: > 100 µM
[7]
  TGI: > 100 µM
[8]
  TGI: > 100 µM
[9]
  TGI: > 100 µM

## CN(C)CC1(C)CC/C(=C\c2ccc3c(c2)OCO3)C1=O (stereo not given)
[1]
  TGI: > 100 µM
[2]
  TGI: 81.4 µM
[3]
  TGI: > 100 µM
[4]
  TGI: > 100 µM
[10]
  TGI: > 100 µM
[6]
  TGI: > 100 µM
[7]
  TGI: > 100 µM
[8]
  TGI: > 100 µM
[9]
  TGI: > 100 µM

## N/C(=N\C(=S)N1CCCCC1)N1CCCCC1
[1]
  TGI: > 100 µM
[2]
  TGI: > 100 µM
[3]
  TGI: > 100 µM
[4]
  TGI: > 100 µM
[10]
  TGI: > 100 µM
[7]
  TGI: > 100 µM
[8]
  TGI: > 100 µM
[9]
  TGI: > 100 µM

## COc1ccc(OC)c(CCc2cc(OC)c(OC)cc2C)c1
[1]
  TGI: > 100 µM
[2]
  TGI: 90.1 µM
[3]
  TGI: > 100 µM
[4]
  TGI: > 100 µM
[10]
  TGI: > 100 µM
[6]
  TGI: > 100 µM
[7]
  TGI: > 100 µM
[8]
  TGI: > 100 µM
[9]
  TGI: > 100 µM

## Cc1ccc(NC(=O)SCCC(=O)O)cc1NC(=O)SCCC(=O)O
[1]
  TGI: > 100 µM
[2]
  TGI: > 100 µM
[3]
  TGI: > 100 µM
[4]
  TGI: > 100 µM
[10]
  TGI: > 100 µM
[6]
  TGI: > 100 µM
[7]
  TGI: > 100 µM
[8]
  TGI: > 100 µM
[9]
  TGI: > 100 µM
